Experimental data as given in ChEMBL document CHEMBL3751843, “Development of glycine-α-methyl-proline-containing tripeptides with neuroprotective properties” (Eur J Med Chem, 2016).
Calls of active or inactive are those of the source. No cut-off for these calls is given here. Where a SMILES comes first, the peptide text is derived from it. [ ]: non-standard residue; d: D form. αMeP = C[C@@]1(C(=O)O)CCCN1

Key:
[1] = system: SH-SY5Y; assay: Neuroprotective against IFNgamma/LPS stimulated THP1 condition medium-induced neurotoxicity in human SH-SY5Y cells assessed as increase in cytoplasmic IkappaBalpha level pretreated for 1 hr followed by addition of THP1 conditioned medium by western blot analysis; type: functional, cell-based
[2] = system: SH-SY5Y; assay: Neuroprotective against IFNgamma/LPS stimulated THP1 condition medium-induced neurotoxicity in human SH-SY5Y cells assessed as NO production per 10^6 cells at 100 nM for 1 hr followed by addition of THP1 conditioned medium by griess assay (reference value: 3.75 +/- 0.14 micromol/L); type: functional
[3] = system: SH-SY5Y; assay: Neuroprotective against IFNgamma/LPS stimulated THP1 condition medium-induced neurotoxicity in human SH-SY5Y cells assessed as NO production per 10^6 cells at 10 uM for 1 hr followed by addition of THP1 conditioned medium by griess assay (reference value: 3.75 +/- 0.14 micromol/L); type: functional
[4] = Metabolic stability in human plasma assessed as half life by HPLC analysis; type: ADME, cell-free
[5] = system: SH-SY5Y; assay: Neuroprotective against IFNgamma/LPS stimulated THP1 condition medium-induced neurotoxicity in human SH-SY5Y cells assessed as NO production per 10^6 cells at 10 nM for 1 hr followed by addition of THP1 conditioned medium by griess assay (reference value: 3.75 +/- 0.14 micromol/L); type: functional
[6] = system: SH-SY5Y; assay: Neuroprotective against IFNgamma/LPS stimulated THP1 condition medium-induced neurotoxicity in human SH-SY5Y cells assessed as NO production per 10^6 cells at 100 uM for 1 hr followed by addition of THP1 conditioned medium by griess assay (reference value: 3.75 +/- 0.14 micromol/L); type: functional
[7] = system: SH-SY5Y; assay: Neuroprotective against IFNgamma/LPS stimulated THP1 condition medium-induced neurotoxicity in human SH-SY5Y cells assessed as NO production per 10^6 cells at 1 uM for 1 hr followed by addition of THP1 conditioned medium by griess assay (reference value: 3.75 +/- 0.14 micromol/L); type: functional
[8] = system: SH-SY5Y; assay: Neuroprotective activity against human SH-SY5Y cells assessed as inhibition of IFNgamma/LPS stimulated THP1 condition medium-induced cytotoxicity measured as cell viability at 100 uM for 1 hr followed by addition of THP1 conditioned medium for 24 hrs by LDH assay in presence of 1 uM dexamethasone; type: functional, cell-based
[9] = system: SH-SY5Y; assay: Neuroprotective against IFNgamma/LPS stimulated THP1 condition medium-induced neurotoxicity in human SH-SY5Y cells assessed as decrease in apoptosis at 100 uM for 1 hr followed by addition of THP1 conditioned medium by annexinV/PI staining based flow cytometry; type: functional, cell-based
[10] = system: SH-SY5Y; assay: Effect on NO production in human SH-SY5Y cells by greiss assay; type: functional, cell-based
[11] = system: SH-SY5Y; assay: Neuroprotective against IFNgamma/LPS stimulated THP1 condition medium-induced neurotoxicity in human SH-SY5Y cells assessed as increase in nNOS expression at 100 uM pretreated for 1 hr followed by addition of THP1 conditioned medium by western blot analysis; type: functional, cell-based
[12] = system: SH-SY5Y; assay: Neuroprotective against IFNgamma/LPS stimulated THP1 condition medium-induced neurotoxicity in human SH-SY5Y cells assessed as reduced iNOS activity at 100 uM pretreated for 1 hr followed by addition of THP1 conditioned medium; type: functional, cell-based
[13] = system: SH-SY5Y; assay: Neuroprotective against IFNgamma/LPS stimulated THP1 condition medium-induced neurotoxicity in human SH-SY5Y cells assessed as decrease in iNOS expression at 100 uM pretreated for 1 hr followed by addition of THP1 conditioned medium by western blot analysis; type: functional, cell-based
[14] = system: SH-SY5Y; assay: Neuroprotective activity against human SH-SY5Y cells assessed as inhibition of IFNgamma/LPS stimulated THP1 condition medium-induced cytotoxicity measured as cell viability at 100 uM for 1 hr followed by addition of THP1 conditioned medium for 24 hrs by LDH assay relative to control; type: functional
[15] = system: SH-SY5Y; assay: Cytotoxicity against human SH-SY5Y cells at 0.1 to 100 uM after 24 hrs by MTT assay; type: cell-based
[16] = system: SH-SY5Y; assay: Neuroprotective against IFNgamma/LPS stimulated THP1 condition medium-induced neurotoxicity in human SH-SY5Y cells assessed as inhibition of RelA/p65 nuclear translocation at 100 uM pretreated for 1 hr followed by addition of THP1 conditioned medium by western blot analysis; type: functional, cell-based
[17] = system: SH-SY5Y; assay: Neuroprotective against IFNgamma/LPS stimulated THP1 condition medium-induced neurotoxicity in human SH-SY5Y cells assessed as increase in nNOS activity at 100 uM pretreated for 1 hr followed by addition of THP1 conditioned medium; type: functional, cell-based
[18] = system: SH-SY5Y; assay: Neuroprotective against IFNgamma/LPS stimulated THP1 condition medium-induced neurotoxicity in human SH-SY5Y cells assessed as increase in cytoplasmic IkappaBalpha level at 100 uM pretreated for 1 hr followed by addition of THP1 conditioned medium by western blot analysis; type: functional, cell-based

half-life [4] [h] | SMILES | Activity [1] | Activity [2] [µmol/L] | Activity [3] [µmol/L] | Activity [5] [µmol/L] | Activity [6] [µmol/L] | Activity [7] [µmol/L] | Activity [8] | inhibition [9] | Activity [10] | Activity [11] | inhibition [12] | inhibition [13] | Activity [14] [%] | Activity [15] | inhibition [16] | Activity [17] | Activity [18]
 | CN1C(=O)[C@]23CC4=CC=C[C@H](O)[C@H]4N2C(=O)[C@@]1(CO)SS3 | Active |  |  |  |  |  |  |  |  |  |  |  |  |  |  |  | 
1.58 | N=C(N)NCCC[C@H](NC(=O)[C@@H]1CCCN1C(=O)CN)C(=O)O (H-Gly-Pro-Arg-OH) |  | 3.74 | 3.05 | 3.72 | 2.64 | 3.68 |  |  |  |  |  |  |  |  |  |  | 
132 | C[C@@]1(C(=O)N[C@@H](CCCNC(=N)N)C(=O)O)CCCN1C(=O)CN (H-Gly-[αMeP]-Arg-OH) |  | 3.71 | 3.57 | 3.78 | 2.92 | 3.72 | Active | Active | inactive | Active | Active | Active | 70 | Non-toxic |  |  | 
118 | C[C@@]1(C(=O)N[C@@H](Cc2cnc[nH]2)C(=O)O)CCCN1C(=O)CN (H-Gly-[αMeP]-His-OH) |  | 3.76 | 2.96 | 3.81 | 2.38 | 3.74 | Active | Active | inactive | Active | Active | Active | 70 | Non-toxic | Active | Active | Active
51.6 | C[C@@]1(C(=O)N[C@@H](CCCCN)C(=O)O)CCCN1C(=O)CN (H-Gly-[αMeP]-Lys-OH) |  | 3.68 | 2.98 | 3.7 | 2.65 | 3.74 | Active | Active | inactive | Active | Active | Active | 70 | Non-toxic |  |  | 
